Results: PubChem BioAssay AID1963825 (Molecular Pharmacology Branch, DTP, NCI, 2024)
“And” between values parts separate entries of the source, which are not always exact repeats. Equal entries are not always repeated.

Assay: Anticancer human tumor 997537-175-T-J1-PDC patient-derived colon adenocarcinoma cell line growth inhibition [POLQ]
Conditions: 997537-175-T-J1-PDC complex spheroid viability, combination with POLQ inhibitors; for viability, T/C: stronger effect = lower value
Experimental: Multicellular complex tumor spheroid response to Polymerase (POL) inhibitors (novobiocin, ART-558, RP6685) in combination with a variety of drugs and investigational agents in selected tumor cell lines
The POL inhibitors (novobiocin, ART-558, and RP6685) were evaluated both individually and in combination with standard of care and investigational anticancer small molecules within a complex spheroid model of solid tumors. . Complex spheroids include a stromal component modeled by human endothelial cells (HUVEC) and fibroblasts modeled by human mesenchymal stem cells (MSCs). The concentration ranges selected for each drug and investigational agent were based upon clinically achievable concentrations if the clinical Cmax of the agent was known.
Compounds. The drugs and investigational agents: novobiocin (NSC847541), ART-558 (NSC835418), RP-6685 (NSC848927), peposertib (NSC802822), ceralasertib (NSC780249), elimusertib (NSC800525), camonsertib (NSC841442), AZD-1390 (NSC803789), olaparib (NSC753686), talazoparib (NSC767125), rucaparib (NSC756644), sotorasib (NSC818433), MRTX-1133 (NSC836407), SN-38 (NSC673596), topotecan (NSC609699), epotoside (NSC141540), doxorubicin (NSC123127), gemcitabine (NSC613327), 5-fluorouracil (NSC19893), paclitaxel (NSC125973), vemurafenib (NSC761431), MSA-2 (NSC828583), SN-011 (NSC837082), adavosertib (NSC754352), prexasertib (NSC758257), carboplatin (NSC241240) and oxaliplatin (NSC266046), were obtained from the National Cancer Institute (NCI) Developmental Therapeutics Program Chemical Repository (21). The FDA-approved anticancer drug set is available from the Developmental Therapeutics Program at https://dtp.cancer.gov/organization/dscb/obtaining/. […] The stock solutions were prepared in dimethyl sulfoxide (DMSO, Sigma-Aldrich, St. Louis, MO, cat. D2650), except for the platinum compounds which were prepared in saline (Quality Biological, Gaithersburg, MD, cat. 114-055-101), at 800-fold the tested concentration and stored at -70 degrees C prior to their use. All drugs and investigational agents were tested over a range starting from a high concentration at or near the clinical Cmax and decreasing in half-log increments. If the clinical Cmax for an agent had not been determined, the highest concentration tested was 10 microM, except for SN-38, which was tested at a high concentration of 1 microM.
Cell Culture. All cells were maintained in an incubator at 37 degrees C and 5% CO2 with 95% humidity. The PDC lines were cultured according to standard operating procedures established by the NCI PDMR (https://pdmr.cancer.gov). Table 3 of the manuscript, lists the cell lines along with the number of the three cell types plated to form the mct-spheroids and media for tumor cell growth. After thawing, all PDC lines, except 997537-175-T-J1-PDC and 415267-285-R-J2-PDC, were cultured in Matrigel-coated flasks prepared with a working solution of 1X Ham's F-12 nutrient mix, without supplementation (Thermo Fisher Scientific, cat. 11765054), 100 U/mL penicillin-streptomycin (Thermo Fisher Scientific, cat. 15140122), and 2.5% Matrigel (Corning Inc., Corning, NY, cat. 354248) for the first three passages. The two PDC lines 997537-175-T-J1-PDC and 415267-285-R-J2-PDC were cultured on uncoated flasks. The 857933-349-R-J2-PDC line was cultured in 6C/Colon 1B media containing advanced DMEM/F-12 (Thermo Fisher Scientific, cat. 12634028), 10 mM HEPES (Thermo Fisher Scientific, cat. 15630080), 1X GlutaMAX supplement (Thermo Fisher Scientific, cat. 35050061), 0.1 mg/mL primocin (InvivoGen, San Diego, CA, cat. ant-pm-2), 10% defined fetal bovine serum, heat inactivated (HyClone Laboratories Inc., Logan, UT, cat. SH30070.03HI), 50% L-WRN conditioned media (ATCC, cat. CRL-3276), 1.25 mM N-Acetyl-L-cysteine (Sigma-Aldrich, cat. A9165), 10 mM nicotinamide (Sigma-Aldrich, cat. N0636), 1X B-27 supplement (Thermo Fisher Scientific, cat. 17504044), 1X N-2 supplement (Thermo Fisher Scientific, cat. […]
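Further: luminescence signal used as a surrogate for viable cells; spheroids exposed to drugs for seven days before readout.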

COc1ccc([C@@H](O)c2cc(-c3ncnc4cc(N5CCOCC5)ccc34)c(F)cc2Cl)nn1
viability, T/C (compound 0.0316 µM): 107% and 102% and 108% | viability, T/C (compound 0.1 µM): 103% and 94.5% and 93.7% | viability, T/C (compound 0.316 µM): 90.6% and 96.5% and 106% | viability, T/C (compound 1 µM): 100% and 105% and 104% | viability, T/C (compound 3.16 µM): 94.8% and 87.4% and 97.1% | viability, T/C (compound 10 µM): 83.2% and 80.4% and 92% | IC50 (curve of compound): > 10 µM

COc1cc(C2c3cc4c(cc3C(OC3OC5COC(C)OC5C(O)C3O)C3COC(=O)C23)OCO4)cc(OC)c1O (stereo not drawn) + Nc1ccc(C#CCN(C(=O)Cc2ncc(C(F)(F)F)cc2C(F)(F)F)c2ccc(F)cc2)nn1
IC50 (curve of first compound, second compound 0.0316 µM): > 10 µM | IC50 (curve of first compound, second compound 0.1 µM): > 10 µM | IC50 (curve of first compound, second compound 0.316 µM): > 10 µM | IC50 (curve of first compound, second compound 1 µM): > 10 µM | IC50 (curve of first compound, second compound 3.16 µM): > 10 µM | IC50 (curve of first compound, second compound 10 µM): 7.77 µM | viability, T/C (second compound 0.0316 µM, first compound 0.0316 µM): 101% | viability, T/C (second compound 0.0316 µM, first compound 0.1 µM): 105% | viability, T/C (second compound 0.0316 µM, first compound 0.316 µM): 93.2% | viability, T/C (second compound 0.0316 µM, first compound 1 µM): 94.2% | viability, T/C (second compound 0.0316 µM, first compound 3.16 µM): 68% | viability, T/C (second compound 0.0316 µM, first compound 10 µM): 67.7% | viability, T/C (second compound 0.1 µM, first compound 0.0316 µM): 112% | viability, T/C (second compound 0.1 µM, first compound 0.1 µM): 96.4% | viability, T/C (second compound 0.1 µM, first compound 0.316 µM): 99.5% | viability, T/C (second compound 0.1 µM, first compound 1 µM): 86% | viability, T/C (second compound 0.1 µM, first compound 3.16 µM): 65.7% | viability, T/C (second compound 0.1 µM, first compound 10 µM): 66.2% | viability, T/C (second compound 0.316 µM, first compound 0.0316 µM): 92.4% | viability, T/C (second compound 0.316 µM, first compound 0.1 µM): 99.5% | viability, T/C (second compound 0.316 µM, first compound 0.316 µM): 86.5% | viability, T/C (second compound 0.316 µM, first compound 1 µM): 83.4% | viability, T/C (second compound 0.316 µM, first compound 3.16 µM): 75.4% | viability, T/C (second compound 0.316 µM, first compound 10 µM): 69.7% | viability, T/C (second compound 1 µM, first compound 0.0316 µM): 92.4% | viability, T/C (second compound 1 µM, first compound 0.1 µM): 96.9% | viability, T/C (second compound 1 µM, first compound 0.316 µM): 97.1% | viability, T/C (second compound 1 µM, first compound 1 µM): 81% | viability, T/C (second compound 1 µM, first compound 3.16 µM): 61% | viability, T/C (second compound 1 µM, first compound 10 µM): 67.7% | viability, T/C (second compound 3.16 µM, first compound 0.0316 µM): 91.1% | viability, T/C (second compound 3.16 µM, first compound 0.1 µM): 93.7% | viability, T/C (second compound 3.16 µM, first compound 0.316 µM): 94.6% | viability, T/C (second compound 3.16 µM, first compound 1 µM): 82.4% | viability, T/C (second compound 3.16 µM, first compound 3.16 µM): 57.8% | viability, T/C (second compound 3.16 µM, first compound 10 µM): 54.3% | viability, T/C (second compound 10 µM, first compound 0.0316 µM): 96% | viability, T/C (second compound 10 µM, first compound 0.1 µM): 104% | viability, T/C (second compound 10 µM, first compound 0.316 µM): 99.5% | viability, T/C (second compound 10 µM, first compound 1 µM): 91% | viability, T/C (second compound 10 µM, first compound 3.16 µM): 61.4% | viability, T/C (second compound 10 µM, first compound 10 µM): 46.8%

C=CC(=O)N1CCN(c2nc(=O)n(-c3c(C)ccnc3C(C)C)c3nc(-c4c(O)cccc4F)c(F)cc23)C(C)C1 (stereo not drawn)
viability, T/C (compound 0.0316 µM): 88.3% and 103% and 94.8% | viability, T/C (compound 0.1 µM): 92.3% and 93.2% and 91.2% | viability, T/C (compound 0.316 µM): 92.7% and 102% and 101% | viability, T/C (compound 1 µM): 99.6% and 91.8% and 112% | viability, T/C (compound 3.16 µM): 103% (2×) and 104% | viability, T/C (compound 10 µM): 101% and 89.6% and 87.3% | IC50 (curve of compound): > 10 µM

O=c1[nH]cc(F)c(=O)[nH]1
viability, T/C (compound 0.0316 µM): 86.3% and 95% and 102% | viability, T/C (compound 0.1 µM): 99.9% and 91.8% and 89.1% | viability, T/C (compound 0.316 µM): 108% and 90% and 106% | viability, T/C (compound 1 µM): 92.9% and 96.2% and 106% | viability, T/C (compound 3.16 µM): 102% and 92% and 105% | viability, T/C (compound 10 µM): 83.8% and 76.2% and 81.4% | IC50 (curve of compound): > 10 µM
